From ChEMBL document CHEMBL1149053, “beta-Carbolines from the blue-green alga Dichothrix baueriana” (J Nat Prod, 1994)
≈ marks a conversion by molar mass, not a printed value.

Legend:
[1] = tested on: Human alphaherpesvirus 2; assay: Antiviral activity against HSV2 clinical isolate; type: functional
[2] = tested on: LoVo; assay: Cytotoxicity against human LoVo cells; type: functional, cell-based

Row | Structure (SMILES) | IC90 [1] [µg/mL] | IC50 [2] [µg/mL]
1 | Cn1c2cnccc2c2ccc(Cl)cc21 [BAUERINE A] | 2 (≈ 9.23 µM) | 3 (≈ 13.8 µM)
2 | Cn1c2cnccc2c2ccc(Cl)c(Cl)c21 [BAUERINE B] | 3 (≈ 11.9 µM) | 5 (≈ 19.9 µM)
3 | Cn1c2c(Cl)c(Cl)ccc2c2cc[nH]c(=O)c21 [BAUERINE C] | 2.5 (≈ 9.36 µM) | 0.03 (≈ 0.112 µM)
